Source: US8501713B2, “Drug combinations for the treatment of duchenne muscular dystrophy” (Summit Corporation PLC, priority 2007, dated 2013)

Assays:
[1] = system: Utrophin A promoter linked to a luciferase reporter gene; assay: Luciferase reporter assay (murine H2K cells); format: cell-based; settings: for Activity: luciferase reporter assay in murine H2K cells, classified relative to control
Procedure, shortened: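 Immortalized mdx mouse H2K myoblasts stably carrying a ~5 kb utrophin A promoter–luciferase construct, kept at 33° C, 10% CO2. After 24 hrs plating, compound added at 10 μM final for 48 hrs; luciferase light output read after in-situ lysis.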

mdx mice = assay: Forced exercise treadmill test: fatigue in mdx mice; format: in vivo, mdx mouse; settings: 50 mg/kg ip daily for 5 weeks in combination with prednisolone, FIG. 4
Experimental: The effect of combinations of a compound of formula (1) with a corticosteroid (prednisolone) was examined by measuring fatigue induced by a forced exercise regime in mdx mice. Four to five week-old male mdx mice were forced to exercise (30 min running on horizontal treadmill at 12 m/min twice a week on the same day and at the same time) over a five week treatment course. Each treatment group included 6 mice. At the end of the treatment course, exhaustion was induced by running on a horizontal treadmill at 5 m/min for 5 min, with incremental speed increases of 1 m/min each minute until exhaustion. The total distance run was then measured. […] Sedentary and vehicle only groups acted as negative controls.

Structure (SMILES) | Activity [1] | further results
CCS(=O)(=O)c1ccc2oc(-c3ccc4ccccc4c3)nc2c1 [Example 390, 5-(ethylsulfonyl)-2-(naphthalen-2-yl)benzo[d]oxazole] | – | activity at 10 µM ([1]; Mus musculus, H2K mdx, luciferase level relative to control, H2K/mdx/Utro A reporter cells, compound 10 μM final concentration, read-out: Activity): 301 to 400%; exercise-induced fatigue (total distance run to exhaustion) (mdx mice): act in synergy to reduce exercise-induced fatigue
Cc1cc(C)c2oc(-c3ccc(Cl)c(N)c3)nc2c1 [Example 627] | ++++ (Above 401% relative to control) | –
Nc1c(C(=O)Nc2ccc(F)cc2)sc2nc3c(cc12)CCC3 [Example 628] | ++++ (Above 401% relative to control) | –
O=C(Nc1nc2ccc(F)cc2s1)c1ccccc1Br [Example 629] | ++++ (Above 401% relative to control) | –
COc1ccc2oc(-c3cccc(N)c3)nc2c1 [Example 630] | ++++ (Above 401% relative to control) | –
CCC(C)C(=O)Nc1ccc(-c2nc3ccccc3[nH]2)cc1 (stereo not drawn) [Example 631] | ++++ (Above 401% relative to control) | –
Cc1ccc2[nH]c(-c3sc4nc(C)ccc4c3N)nc2c1 [Example 632] | ++++ (Above 401% relative to control) | –
c1ccc(OCc2nc3ccccc3s2)cc1 [Example 633] | +++ (Between 301% and 400% relative to control) | –
CCn1c(C)nc2cc(-c3ccccc3)ccc21 [Example 634] | +++ (Between 301% and 400% relative to control) | –
Cc1ccc2nc(-c3ccc(C)c(N)c3)oc2c1 [Example 635] | +++ (Between 301% and 400% relative to control) | –
Cc1ccc2oc(-c3ccc(Cl)c(N)c3)nc2c1 [Example 636] | +++ (Between 301% and 400% relative to control) | –
Cc1ccc(NC(=O)Nc2nc3ccccc3s2)cc1 [Example 637] | +++ (Between 301% and 400% relative to control) | –
Cc1ccc2nc(-c3ccc(NC(=O)c4cccnc4)cc3)sc2c1 [Example 638] | +++ (Between 301% and 400% relative to control) | –
c1ccc2nc(-c3nc4ccccc4s3)ccc2c1 [Example 639] | +++ (Between 301% and 400% relative to control) | –
COc1ccc(CSc2nc3ccccc3[nH]2)cc1 [Example 640] | +++ (Between 301% and 400% relative to control) | –
O=C(Nc1ccc(-c2nc3ncccc3o2)cc1)c1ccccc1Cl [Example 641] | +++ (Between 301% and 400% relative to control) | –
CCc1ccc2oc(-c3cccc(NC(C)=O)c3)nc2c1 [Example 642] | +++ (Between 301% and 400% relative to control) | –
Cc1ccc2nc(-c3ccc(O)cc3)sc2c1 [Example 643] | +++ (Between 301% and 400% relative to control) | –
CCC(=O)Nc1cccc(-c2nc3cc(C)ccc3o2)c1 [Example 644] | +++ (Between 301% and 400% relative to control) | –
COc1ccc(CSc2nc3ccccc3n2C)cc1F [Example 645] | +++ (Between 301% and 400% relative to control) | –
Cc1cc2nc(-c3cc(N)ccc3Cl)oc2cc1C [Example 646] | +++ (Between 301% and 400% relative to control) | –
c1cc(NCc2ccncc2)cc(-c2nc3ccccc3s2)c1 [Example 647] | +++ (Between 301% and 400% relative to control) | –

Structure (SMILES) | Activity [1] | further results
Cc1ccccc1C(=O)Nc1nc2ccccc2[nH]1 [Example 648] | +++ (Between 301% and 400% relative to control) | –
Cc1cc(-c2nc3cc(N)ccc3o2)ccc1Br [Example 649] | +++ (Between 301% and 400% relative to control) | –
Cc1cccc(NC(=O)c2sc3nc(C)cc(C)c3c2N)c1 [Example 650] | +++ (Between 301% and 400% relative to control) | –
CC(C)C(=O)Nc1ccc(-c2nc3ccccc3s2)cc1 [Example 651] | +++ (Between 301% and 400% relative to control) | –
Cc1ccc2nc(NC(=O)c3ccco3)sc2c1 [Example 652] | +++ (Between 301% and 400% relative to control) | –
Nc1cc(-c2nc3ccccc3[nH]2)ccc1Cl [Example 653] | +++ (Between 301% and 400% relative to control) | –
Cc1ccc2nc(-c3ccc(NC(=O)CSc4nnc[nH]4)cc3)sc2c1 [Example 654] | +++ (Between 301% and 400% relative to control) | –
CC(=O)Oc1ccc(C(=O)Nc2ccc(-c3nc4ccccc4[nH]3)cc2)cc1 [Example 655] | +++ (Between 301% and 400% relative to control) | –
Cc1cc2oc(C(=O)NCc3ccncc3)c(C)c2cc1C [Example 656] | +++ (Between 301% and 400% relative to control) | –
CCOCC(=O)Nc1ccc(-c2nc3ccc(C)cc3s2)cc1 [Example 657] | +++ (Between 301% and 400% relative to control) | –
O=C(Nc1nc2ccc(F)cc2s1)c1cccs1 [Example 658] | +++ (Between 301% and 400% relative to control) | –
Cc1nn(-c2nc3ccccc3[nH]2)c(N)c1-c1ccccc1 [Example 659] | +++ (Between 301% and 400% relative to control) | –
CCOCCC(=O)Nc1ccc(-c2nc3ccc(C)cc3s2)cc1 [Example 660] | +++ (Between 301% and 400% relative to control) | –
O=C(Nc1ccc(-c2nc3ccccc3s2)cc1)C1CC1 [Example 661] | +++ (Between 301% and 400% relative to control) | –
CC(=O)Nc1ccc(-c2nc3cc(C)ccc3o2)cc1 [Example 662] | +++ (Between 301% and 400% relative to control) | –
Cc1ccc(NC(=O)C(=O)c2c[nH]c3ccccc23)c(Br)c1 [Example 663] | +++ (Between 301% and 400% relative to control) | –
Cc1ccc2nc(-c3ccc(N)cc3)sc2c1 [Example 664] | ++ (Between 201% and 300% relative to control) | –
O=C(NCCc1ccccc1)c1cc2ccccc2o1 [Example 665] | ++ (Between 201% and 300% relative to control) | –
Cn1c(CNc2ccc(Cl)cc2)nc2ccccc21 [Example 666] | ++ (Between 201% and 300% relative to control) | –
CCC(=O)Nc1ccc(-c2nc3ccccc3s2)cc1 [Example 667] | ++ (Between 201% and 300% relative to control) | –
CCC(=O)Nc1ccc2oc(-c3cccc(C)c3)nc2c1 [Example 668] | ++ (Between 201% and 300% relative to control) | –
Cn1c(NC(=N)c2ccccc2)nc2ccccc21 [Example 669] | ++ (Between 201% and 300% relative to control) | –

Structure (SMILES) | Activity [1] | further results
Cc1ccc(C(=O)Nc2ccc3c(c2)ncn3C)cc1 [Example 670] | ++ (Between 201% and 300% relative to control) | –
O=C(Nc1nc2ccccc2s1)c1cc(Br)ccc1Cl [Example 671] | ++ (Between 201% and 300% relative to control) | –
Cc1ccc2nc(-c3ccc(NC(=O)c4cccs4)cc3)oc2c1 [Example 672] | ++ (Between 201% and 300% relative to control) | –
Nc1c(C(=O)Nc2ccccc2F)sc2nc3c(cc12)CCC3 [Example 673] | ++ (Between 201% and 300% relative to control) | –
OCc1cn(-c2ccccc2)nc1-c1cc2ccccc2o1 [Example 674] | ++ (Between 201% and 300% relative to control) | –
COc1ccc(-c2nc3cc(C)ccc3o2)cc1 [Example 675] | ++ (Between 201% and 300% relative to control) | –
CCOc1ccc(NCc2nc3ccccc3n2C)cc1 [Example 676] | ++ (Between 201% and 300% relative to control) | –
Cc1ccc2oc(-c3ccc(Cl)c(NC(=O)c4ccco4)c3)nc2c1 [Example 677] | ++ (Between 201% and 300% relative to control) | –
Cc1nc(Nc2nc3ccccc3o2)nc2c1CCC2 [Example 678] | ++ (Between 201% and 300% relative to control) | –
O=C(Nc1nc2ccccc2[nH]1)c1cccc(Cl)c1 [Example 679] | ++ (Between 201% and 300% relative to control) | –
O=C(Nc1ccc(-c2nc3ccccc3s2)cc1)C1CCCO1 (stereo not drawn) [Example 680] | ++ (Between 201% and 300% relative to control) | –
CC(=O)c1c(C)nc(Nc2nc3ccccc3o2)nc1C [Example 681] | ++ (Between 201% and 300% relative to control) | –
Cc1ccnc(Nc2nc3ccccc3o2)n1 [Example 682] | ++ (Between 201% and 300% relative to control) | –
CN(C)S(=O)(=O)c1ccc2nc(NC(=O)c3cccs3)sc2c1 [Example 683] | ++ (Between 201% and 300% relative to control) | –
Cc1ccc2oc(-c3cc(NC(=O)c4cncc(Br)c4)ccc3O)nc2c1 [Example 684] | ++ (Between 201% and 300% relative to control) | –
O=C(CSc1nc[nH]n1)Nc1ccc(-c2nc3ccccc3s2)cc1 [Example 685] | ++ (Between 201% and 300% relative to control) | –
COc1ccc2oc(-c3ccc(C)c(N)c3)nc2c1 [Example 686] | ++ (Between 201% and 300% relative to control) | –
CNS(=O)(=O)c1ccc2nc(NC(=O)c3cccs3)sc2c1 [Example 687] | ++ (Between 201% and 300% relative to control) | –
Cc1ccc2sc(-c3ccc(NC(=O)c4cc(-n5cnnc5)ccc4Cl)cc3)nc2c1 [Example 688] | ++ (Between 201% and 300% relative to control) | –
O=C(Nc1ccccc1F)C(=O)c1c[nH]c2ccccc12 [Example 689] | ++ (Between 201% and 300% relative to control) | –
C[C@]12C=CC(=O)C=C1CC[C@@H]1[C@@H]2[C@@H](O)C[C@@]2(C)[C@H]1CC[C@]2(O)C(=O)CO [PDN, prednisolone, reference compound] | – | exercise-induced fatigue (total distance run to exhaustion) (mdx mice): act in synergy to reduce exercise-induced fatigue
